Results on 6 compounds are retold here after article PMC8476755 (Frontiers in Chemistry, 2021).

Test [1] has as its target T1, BGT1 (Homo sapiens, UniProt P48065).
T1 construct: expressed in transfected cells
T1 sequence (P48065 1-614): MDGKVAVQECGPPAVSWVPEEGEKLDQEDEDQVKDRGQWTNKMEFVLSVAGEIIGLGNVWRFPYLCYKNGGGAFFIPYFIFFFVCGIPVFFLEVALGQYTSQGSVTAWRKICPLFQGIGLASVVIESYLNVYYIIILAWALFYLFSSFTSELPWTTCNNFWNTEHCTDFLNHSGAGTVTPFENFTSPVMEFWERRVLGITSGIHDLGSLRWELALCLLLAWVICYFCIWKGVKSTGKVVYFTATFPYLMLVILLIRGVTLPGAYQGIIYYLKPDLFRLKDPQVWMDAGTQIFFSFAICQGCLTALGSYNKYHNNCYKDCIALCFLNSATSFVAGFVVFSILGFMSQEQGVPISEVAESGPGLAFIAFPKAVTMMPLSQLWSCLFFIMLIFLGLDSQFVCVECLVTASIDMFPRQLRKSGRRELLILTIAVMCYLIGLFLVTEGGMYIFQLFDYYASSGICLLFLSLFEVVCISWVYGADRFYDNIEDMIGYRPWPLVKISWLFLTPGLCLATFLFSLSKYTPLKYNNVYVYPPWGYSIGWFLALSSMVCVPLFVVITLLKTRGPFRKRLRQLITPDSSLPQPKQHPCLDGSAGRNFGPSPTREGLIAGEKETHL
Description: [3H]GABA uptake assay, single concentration screening. The test is classed as cell-based. Conditions: read-out: Percentage inhibition of [3H]GABA uptake at BGT1, 100 µM test compound; n = 2. The procedure: (§1) Based on this finding, only 2 and bicyclo-GABA were further investigated pharmacologically.
(§2) (D–E) Gaddum-Schild analysis of bicyclo-GABA, yielding a Schild slope of 1.02 indicative of competitive inhibition with a calculated K B of 0.47 µM (n = 4). (F) Characterization of bicyclo-GABA and 2 at α1β2γ2 GABAA receptors by use of the FMP assay. […] Data are presented as means ± S.E.M.
Briefly, cells were seeded in white 96-well plates (White Opaque Tissue Culture (TC) plated 96-well Microplate) pre-coated with PDL. Medium was removed on the following day and cells washed with 100 µL/well assay buffer (HBSS supplemented with 20 mM HEPES, 1 mM CaCl2 and 1 mM MgCl2, pH 7.4). […] The cells were washed 3 times with 100 µL/well ice-cold assay buffer, 150 µL/well MicroScint™20 was subsequently added before the plate was shaken for at least 1 h. The plate was counted in a Packard TopCounter microplate scintillation counter (PerkinElmer) for 3 min per well. Typical counts per minute for the different GATs were in the range of: wt hBGT1 (100–4,000), BGT1 Q299 (100–1,000), hBGT E52Y (150–500), BGT1 E52A (150–8,000), BGT1 E52A + Q299L (150–500), wt GAT3 (200–8,000), GAT3 L314Q (100–1,500), wt GAT1 (100–10,000) and wt GAT2 (150–7,500). […] Data presented is the pooled data of at least three independent experiments with three technical replicates if not stated otherwise in figure legends. […]

Test [2] relates to BGT1. More on the design: method as in Kobayashi et al., 2014. The conditions noted are these: ref Kobayashi et al., 2014, cited from earlier work.
For another test, the target named is T2, BGT1 E52A (Homo sapiens, UniProt P48065, E52A).
T2 construct: expressed in transfected cells; host or cells: tsA201 (transformed HEK293), transient
T2 sequence (P48065 1-614 E52A): T1 sequence (P48065 1-614) with E52A
Nature of the test: [3H]GABA uptake assay, transient expression in tsA201 cells. The test is classed as cell-based. The conditions noted are these: BGT1 E52A vs BGT1 wt. The procedure: The residue Q299 in human BGT1 corresponds to leucine in all other GATs (human, rat, mouse), while E52 corresponds to tyrosine in GAT1 (human, rat, mouse) but is conserved among GAT2, GAT3 and BGT1 (human, rat, mouse) (Figure 6A) ([Kickinger et al., 2019]).
(§3) The tsA201 cell line (a transformed HEK293 cell line), the Flp-In CHO cell lines stably expressing human (h) GATs and the HEK293 cell line stably expressing human α1β2γ2 GABAA receptors have been described previously and were cultured accordingly ([Al-Khawaja et al., 2014]; [Falk-Petersen et al., 2020]). The tsA201 cell line used for transient expression of hGATs was transfected with DNA constructs (8 μg per 10 cm plate) using 40 μL PolyFect transfection reagent according to the manufacturer’s protocol (Qiagen).
Briefly, cells were seeded in white 96-well plates (White Opaque Tissue Culture (TC) plated 96-well Microplate) pre-coated with PDL. Medium was removed on the following day and cells washed with 100 µL/well assay buffer (HBSS supplemented with 20 mM HEPES, 1 mM CaCl2 and 1 mM MgCl2, pH 7.4). […] The cells were washed 3 times with 100 µL/well ice-cold assay buffer, 150 µL/well MicroScint™20 was subsequently added before the plate was shaken for at least 1 h. The plate was counted in a Packard TopCounter microplate scintillation counter (PerkinElmer) for 3 min per well. […] Data presented is the pooled data of at least three independent experiments with three technical replicates if not stated otherwise in figure legends. Concentration–response curves were fitted by non-linear regression to the sigmoidal concentration-response model with GraphPad Prism (version 9.0.0, GraphPad Software, San Diego, CA, United States) as described ([Lie et al., 2020]).

The target of the next test is T3, GAT3 L314Q (Homo sapiens, UniProt P48066, L314Q).
T3 construct: expressed in transfected cells; host or cells: tsA201 (transformed HEK293), transient
T3 sequence (P48066 1-632 L314Q): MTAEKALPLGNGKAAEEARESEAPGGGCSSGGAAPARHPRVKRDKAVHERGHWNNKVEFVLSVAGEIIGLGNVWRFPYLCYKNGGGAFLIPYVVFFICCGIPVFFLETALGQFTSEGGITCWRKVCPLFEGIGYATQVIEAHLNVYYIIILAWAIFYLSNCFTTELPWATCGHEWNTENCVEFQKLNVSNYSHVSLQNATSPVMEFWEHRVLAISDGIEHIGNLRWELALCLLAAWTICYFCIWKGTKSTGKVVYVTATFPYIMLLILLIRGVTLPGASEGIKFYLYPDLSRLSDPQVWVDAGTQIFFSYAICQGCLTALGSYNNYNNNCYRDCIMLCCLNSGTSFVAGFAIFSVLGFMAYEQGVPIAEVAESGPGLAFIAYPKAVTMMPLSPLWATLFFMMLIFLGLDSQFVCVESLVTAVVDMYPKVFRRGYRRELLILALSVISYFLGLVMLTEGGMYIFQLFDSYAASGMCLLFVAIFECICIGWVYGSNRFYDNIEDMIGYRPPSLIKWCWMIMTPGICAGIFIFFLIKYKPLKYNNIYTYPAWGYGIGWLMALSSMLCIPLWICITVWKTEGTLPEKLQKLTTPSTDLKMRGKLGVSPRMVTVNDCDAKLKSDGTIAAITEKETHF
The description is as above. The test is classed as cell-based. Conditions: GAT3 L314Q, tsA201 cells; read-out: pIC50 ± S.E.M. (converted).
Source text: According to the docking and MD results, the sidechains of Q299 and E52 were identified to form crucial interactions with the protonated nitrogen of both compounds. The residue Q299 in human BGT1 corresponds to leucine in all other GATs (human, rat, mouse), while E52 corresponds to tyrosine in GAT1 (human, rat, mouse) but is conserved among GAT2, GAT3 and BGT1 (human, rat, mouse) (Figure 6A) ([Kickinger et al., 2019]). Thus, we engineered the corresponding mutants Q299L and E52Y in human BGT1 and predicted that the introduction of these mutations would lead to decreased activity of both bicyclo-GABA and 2 due to the loss of essential hydrogen bond interactions. Furthermore, we wanted to test the double mutant E52Y + Q299L. However, in a previous study this mutant was proven non-functional ([Kickinger et al., 2020]). Instead, we generated the double mutant E52A + Q299L as well as the single mutant E52A. For these mutants we predicted decreased activity. Lastly, the reciprocal mutation to BGT1 Q299L was created in GAT3 (L314Q), ideally expecting a gain-of-function.
FIGURE 6 (A) Pocket alignment of the orthosteric site of the four GAT subtypes colored according to the default ClustalX color scheme ([Larkin et al., 2007]). The pocket was defined as all corresponding GAT residues (15 in total) that are within a distance of 4.5 Å of the co-crystallized ligand leucine in the homologous LeuT crystal structure (PDB ID 2A65) ([Yamashita et al., 2005]) according to the alignment by Kickinger et al. ([Kickinger et al., 2019]). The mutated residues in BGT1 and the corresponding residues in GAT1-3 are indicated by a red box. The numbering of all residues within the orthosteric pocket can be found in the Supplementary Table S1.
as §3, with “(Qiagen). All DNA constructs used have been described previously: wt hBGT1, wt GAT3 ([Kvist et al., 2009]), BGT1 Q299, GAT3 L314Q ([Jørgensen et al., 2017]), hBGT E52Y, BGT1 E52A and BGT1 E52A + Q299L ([Kickinger et al., 2020]).” for “(Qiagen).”
(§4) Briefly, cells were seeded in white 96-well plates (White Opaque Tissue Culture (TC) plated 96-well Microplate) pre-coated with PDL. Medium was removed on the following day and cells washed with 100 µL/well assay buffer (HBSS supplemented with 20 mM HEPES, 1 mM CaCl2 and 1 mM MgCl2, pH 7.4). […] The cells were washed 3 times with 100 µL/well ice-cold assay buffer, 150 µL/well MicroScint™20 was subsequently added before the plate was shaken for at least 1 h. The plate was counted in a Packard TopCounter microplate scintillation counter (PerkinElmer) for 3 min per well. Typical counts per minute for the different GATs were in the range of: wt hBGT1 (100–4,000), BGT1 Q299 (100–1,000), hBGT E52Y (150–500), BGT1 E52A (150–8,000), BGT1 E52A + Q299L (150–500), wt GAT3 (200–8,000), GAT3 L314Q (100–1,500), wt GAT1 (100–10,000) and wt GAT2 (150–7,500). […] Data presented is the pooled data of at least three independent experiments with three technical replicates if not stated otherwise in figure legends. Concentration–response curves were fitted by non-linear regression to the sigmoidal concentration-response model with GraphPad Prism (version 9.0.0, GraphPad Software, San Diego, CA, United States) as described ([Lie et al., 2020]).

Test [3] deals with four human GABA transporters (GATs). Description: [3H]GABA uptake assay, single concentration screening at the four human GATs. The test is classed as cell-based. Conditions: 100 µM test compound, n = 2. The procedure: as §1, §2, §4

A word on the inhibition: it is the share of the control response that was lost under treatment.

Where a chain is given by its changes, count along the chain named.

On to `CC1(CC(=O)O)CC1N` (centres unmarked) [4a], for which, at BGT1 [1], the inhibition at 100 µM came to 68%.

As for `NC1CC1CC(=O)O` [compound 1, (2S,3R)-4-amino-3,4-methanobutyric acid], the “Less potent than bicyclo-GABA” value in the test on BGT1 [2] is listed as 9 times. The “Higher activity for BGT1 than GAT3” value in the test on BGT1 [2] (subtype-selectivity BGT1 vs GAT3) is listed as “three times higher activity”.

Turning to `NCCCC(=O)O` [GABA, γ-aminobutyric acid], at BGT1 E52A, the “Increase in activity compared to wildtype” value is “not significantly altered”. The IC50 on GAT3 L314Q was 5.01 µM.

`CN(C)[C@@]12CC[C@H](C(=O)O)[C@@H]1C2` [compound 3]: the “Percentage inhibition of [3H]GABA uptake at any of the GATs” value (“Percentage inhibition of [3H]GABA uptake” for short) in test [3] was under 15%.

Take `NC1CC1(CC(=O)O)c1ccccc1` (centres unmarked) [4c]: in test [3], the “Percentage inhibition of [3H]GABA uptake” value is on record as under 15%.

Consider `CCC1(CC(=O)O)CC1N` (centres unmarked) [4b], for which the “Percentage inhibition of [3H]GABA uptake” value in test [3] is reported as under 15%.
